Like-named read-outs stand apart in the source and are kept apart here.
How the values were obtained:
HBV = assay: Anti-HBV antiviral assay: extracellular HBV virion DNA by Southern blot in HepG 2.2.15 cultures; format: cell-based, hepatitis B virus
Procedure: Confluent cultures of chronic HBV producing cell line HepG 2.2.15 in 96-well tissue culture plates in RPMI 1640 medium with 2% fetal bovine serum were used for the antiviral analysis of castanospermine esters (see Korba and Gerin, Antivir. Res. 19:55-70, 1992).
Extracellular HBV nucleic acid levels were measured 24 hours after the last treatment by Southern blot hybridization (quantified via densitometry using equipment and methods known in the art) as a measure of the number of HBV virions produced.
Based on the hybridization analysis, about 1.0 pg extracellular HBV DNA/ml of culture medium is roughly equivalent to about 3×10^5 viral particles/ml. Values ±standard deviations (SD) were calculated by linear regression analysis using data combined from all treated cultures. SDs were calculated using the standard error of regression generated from the linear regression analyses.

[1] = Cytotoxicity, neutral red dye uptake; settings: human
Procedure: (§1) Cytotoxicity analyses were also performed in order to assess whether any observed antiviral effects were due to a general effect on cell viability. This analysis was performed on 96-well plates seeded at the same time and with the identical pool of stock cells used for the antiviral assay described in Example 1. […] Cellular uptake of neutral red dye was used to determine the relative level of toxicity 24 hours after the final treatment. A cell that is viable will take up the neutral red dye, while a dead cell will not. The absorbance of internalized dye at 510 nm (A510) was used for quantitative analysis. Values are presented as a percentage of the average A510 values (±standard deviation, SD) in 9 separate cultures of untreated cells on the same plate.
(§2) The EC90 and CC50 values were used to calculate a Selectivity Index (SI, CC50/EC90) because at least a […] reduction in HBV levels is considered as having achieved statistical significance in this assay (see Korba & Gerin, Antiviral Res. 19:55-70,1992).

HepG 2.2.15 = assay: Cytotoxicity, neutral red dye uptake; settings: for Cytotoxicity - Neutral Red Dye Uptake: 24 hours after final treatment
Procedure: as §1, §2

[2] = Hepatitis B virus, HepG2.2.15, Table 5, monotherapy, or celgosivir concentration in combination with ADV

CC(C)(C)C(=O)OCOP(=O)(COCCn1cnc2c(N)ncnc21)OCOC(=O)C(C)(C)C [ADV, adefovir dipivoxil]
HBV Virion DNA Levels (HBV; 0.3 μM ADV, untreated cells 121 pg/mL): 121 ± 13 pg/mL culture medium
HBV Virion DNA Levels (HBV; 1.0 μM ADV, untreated cells 121 pg/mL): 55 ± 4 pg/mL culture medium
HBV Virion DNA Levels (HBV; 3.0 μM ADV, untreated cells 121 pg/mL): 11 ± 2 pg/mL culture medium
HBV Virion DNA Levels (HBV; 10 μM ADV, untreated cells 121 pg/mL): 3 ± 1 pg/mL culture medium
EC50 (HBV; Hepatitis B virus, HepG2.2.15, Table 3, concentration giving 2-fold reduction in HBV DNA vs untreated cultures, read-out: EC50): 0.95 ± 0.105 µM
EC90 (HBV; Hepatitis B virus, HepG2.2.15, Table 3, concentration giving 10-fold reduction in HBV DNA vs untreated cultures, read-out: EC90): 2.8 ± 0.1 µM
EC50 (HBV; Hepatitis B virus, HepG2.2.15, Table 5, monotherapy, or celgosivir concentration in combination with ADV, read-out: EC50): 1 ± 0.1 µM
EC90 (HBV; Hepatitis B virus, HepG2.2.15, Table 5, monotherapy, or celgosivir concentration in combination with ADV, read-out: EC90): 3 ± 0.1 µM
CC50 [1]: 468 ± 17 µM
Cytotoxicity - Neutral Red Dye Uptake (HepG 2.2.15; 30 μM (combinations: dose of celgosivir)): 100% ± 2 % of Control
Cytotoxicity - Neutral Red Dye Uptake (HepG 2.2.15; 100 μM (combinations: dose of celgosivir)): 98% ± 1 % of Control
Cytotoxicity - Neutral Red Dye Uptake (HepG 2.2.15; 300 μM (combinations: dose of celgosivir)): 73% ± 2 % of Control
Cytotoxicity - Neutral Red Dye Uptake (HepG 2.2.15; 1000 μM (combinations: dose of celgosivir)): 10% ± 1 % of Control

CCCC(=O)O[C@H]1CN2CC[C@H](O)[C@@H]2[C@@H](O)[C@@H]1O [Celgosivir, [1S-(1α,6β,7α,8β,8aβ)]-octahydro-1,6,7,8-indolizinetetrol 6-butanoate]
HBV Virion DNA Levels (HBV; 15 μM (first panel), 9 daily doses, untreated cells 121 pg/mL): 113 ± 9 pg/mL culture medium
HBV Virion DNA Levels (HBV; 15 μM celgosivir (third panel; combinations plus ADV at the molar ratio)): 111 ± 8 pg/mL culture medium
HBV Virion DNA Levels (HBV; 50 μM (first panel), 9 daily doses, untreated cells 121 pg/mL): 56 ± 4 pg/mL culture medium
HBV Virion DNA Levels (HBV; 50 μM celgosivir (third panel; combinations plus ADV at the molar ratio), assay sensitivity 0.1 pg/mL): 53 ± 6 pg/mL culture medium
HBV Virion DNA Levels (HBV; 150 μM (first panel), 9 daily doses, untreated cells 121 pg/mL): 17 ± 2 pg/mL culture medium
HBV Virion DNA Levels (HBV; 150 μM celgosivir (third panel; combinations plus ADV at the molar ratio), assay sensitivity 0.1 pg/mL): 16 ± 2 pg/mL culture medium
HBV Virion DNA Levels (HBV; 300 μM, 9 daily doses, extracellular, 24 hours after last treatment, untreated cells 121 pg/mL): 8 ± 1 pg/mL culture medium
EC50 (HBV; Table 3, concentration giving 2-fold reduction in HBV DNA vs untreated cultures, read-out: EC50): 28 ± 1.4 µM
EC90 (HBV; Table 3, concentration giving 10-fold reduction in HBV DNA vs untreated cultures, read-out: EC90): 158 ± 22 µM
EC50 (HBV; Table 5, monotherapy, or celgosivir concentration in combination with ADV, read-out: EC50): 24 ± 1.2 µM
EC90 (HBV; Table 5, monotherapy, or celgosivir concentration in combination with ADV, read-out: EC90): 147 ± 15 µM
HBV virion production by the 2.2.15 cells, in words (HBV; summary of Tables 2 and 3): caused a reduction in HBV virion production
CC50 (HepG 2.2.15; Table 5, 2-fold reduction in neutral red dye uptake, value for the drug named, >1000 = highest concentration tested): > 1000 µM

Nc1ccn([C@@H]2CS[C@H](CO)O2)c(=O)n1 [Compound 3TC, (−)2′,3′-dideoxy, 3′-thiacytidine]
EC50 (HBV; Hepatitis B virus, HepG2.2.15, Table 3, concentration giving 2-fold reduction in HBV DNA vs untreated cultures): 0.058 ± 0.004 µM
EC90 (HBV; Hepatitis B virus, HepG2.2.15, Table 3, concentration giving 10-fold reduction in HBV DNA vs untreated cultures): 0.177 ± 0.015 µM
EC50 (HBV; [2]): 0.058 ± 0.004 µM
EC90 (HBV; [2]): 0.177 ± 0.015 µM
Selectivity Index (CC50/EC90) (HBV; Table 5, monotherapy, or celgosivir in combination with ADV): 11,709
CC50 [1]: 2340 ± 89 µM
